We go through 4 compounds from patent publication US20130041023A1, “Composition for Preventing or Treating Rotavirus Infection Comprising Licorice Extract” (priority 2010, published 2013).

Structures are written as SMILES. Where two headings read alike, the source gives them in different places.

In series [1] the test system is porcine rotavirus KJ205 (G5P[7]). Kind of series: CPE inhibition effect, porcine rotavirus KJ205 (TF-104 cells treated after virus inoculation). The class given is cell-based. As to conditions: for EC50: TF-104 cells; for selectivity ratio: rhesus monkey, read-out: S.I. (selective index, CC50/EC50). Here is the method: In order to the CPE (cytopathic effect) reduction effects and virucidal effects of the compounds separated from licorice on bovine rotavirus NCDV (G6P[1]) and porcine rotavirus KJ205 […][7]), the following in vitro experiment was performed using the fetal rhesus monkey kidney cell line TF-104. Inhibition %=(O.D) value of sample-treated group-(O.D) value of infected+non-administered control/(O.D) value of non-infected+non-administered control-(O.D) value of infected+non-administered control×100 [Equation 1] In the above equation, the O.D value means the absorbance measured at 540 nm. Meanwhile, in order to examine the inhibitory effects of the compounds separated from licorice on the CPE of bovine rotavirus NCDV (G6P[1]) and porcine rotavirus KJ205 […][7]), […] were washed twice with alpha-MEM containing only an antibiotic, after which the viruses were inoculated into the TF-104 cells and incubated at 37° C. for 1 hour. After 1 hour, the inoculated virus liquids were completely removed, the virus-inoculated TF-104 cells were treated with varying concentrations of the licorice extract and the polyphenolic compounds. Further, the cytopathic effect inhibition (inhibition %) of the compounds separated from licorice were calculated using equation 1 above in the same manner as described above, and the results of the calculation are shown in Table 1 below.

A short description of series [2]: Cytotoxicity (CC50) in TF-104 cells. The class given is cell-based. The note with it: rhesus monkey, TF-104 cells (fetal rhesus monkey kidney cell line). The procedure: In order to the CPE (cytopathic effect) reduction effects and virucidal effects of the compounds separated from licorice on bovine rotavirus NCDV (G6P[1]) and porcine rotavirus KJ205 […][7]), the following in vitro experiment was performed using the fetal rhesus monkey kidney cell line TF-104. First, TF-104 cells were added to a 96-well microplate at a density of 4×10^4 cells/well and cultured with alpha-MEM medium (penicillin 100 units, […], 5% FBS). When the TF-104 cells formed a monolayer, the cells were washed twice with alpha-MEM containing only an antibiotic. Each of NCDV and KJ205 was diluted to an MOI of 0.01 and placed in EP tubes. Each of the licorice extract and the polyphenolic compounds, diluted with dimethylsulfoxide (DMSO), was placed in each of the tubes at varying concentrations and then allowed to react at 4° C. for 1 hour. After 1 hour, the reaction material was inoculated into the washed TF-104 cells in such a manner that one sample concentration was inoculated into 3 wells (hereinafter referred to as “sample-treated groups”). Meanwhile, a non-infected+non-administered control (cell group not infected with NCDV or KJ205 and not treated with the compound) and an infected+non-administered control (virus control; a cell group infected with NCDV or KJ205, but not treated with the compound) were allowed to react under the same conditions for 1 hour, and then inoculated into the TF-104 cells, which were then incubated at 37° C. for 1 hours. After 1 hour, the medium was completely removed from the plate, which was then washed once with PBS. Then, […] medium containing 1 mg/mL of trypsin and antibiotic were dispensed into each well of the plate and incubated at 37° C. for 5-6 days. In the case of the infected +non-administered control group, incubation was performed for 5-6 days until the cytopathic effect (CPE) of the virus clearly appeared. […] After 5-6 days of the incubation, in order to examine the viability of the cells, […] solution (Sigma, UK) was added to each well of the place and allowed to react at 37° C. for 2 hours. Then, the medium was removed, […] solution (1% glacial acetic acid, 49% DDW, 50% EtOH) was added to each well, and after 15 minutes, the absorbance at 540 nm was measured. The virucidal effects (inhibition %) of the inventive compounds separated from licorice compared to the non-infected+non-administered control group and the infected+non-administered control group were calculated using the following equation 1, and the results of the calculation are shown in Table 1 below.

Series [3] concerns porcine rotavirus KJ205 (G5P[7]). Kind of series: Virucidal effect against porcine rotavirus KJ205 (sample pre-reacted with virus, neutral red readout in TF-104 cells). Type of series: cell-based. As to conditions: for EC50: TF-104 cells; for virucidal effect, result in words: bovine and/or porcine rotavirus as worded. The procedure:
(§1) In order to the CPE (cytopathic effect) reduction effects and virucidal effects of the compounds separated from licorice on bovine rotavirus NCDV (G6P[1]) and porcine rotavirus KJ205 (G5P[7]), the following in vitro experiment was performed using the fetal rhesus monkey kidney cell line TF-104.
First, TF-104 cells were added to a 96-well microplate at a density of 4×10^4 cells/well and cultured with alpha-MEM medium (penicillin 100 units, […], 5% FBS). When the TF-104 cells formed a monolayer, the cells were washed twice with alpha-MEM containing only an antibiotic. Each of NCDV and KJ205 was diluted to an MOI of 0.01 and placed in EP tubes. Each of the licorice extract and the polyphenolic compounds, diluted with dimethylsulfoxide (DMSO), was placed in each of the tubes at varying concentrations and then allowed to react at 4° C. for 1 hour. After 1 hour, the reaction material was inoculated into the washed TF-104 cells in such a manner that one sample concentration was inoculated into 3 wells (hereinafter referred to as “sample-treated groups”). Meanwhile, a non-infected+non-administered control (cell group not infected with NCDV or KJ205 and not treated with the compound) and an infected+non-administered control (virus control; a cell group infected with NCDV or KJ205, but not treated with the compound) were allowed to react under the same conditions for 1 hour, and then inoculated into the TF-104 cells, which were then incubated at 37° C. for 1 hours. After 1 hour, the medium was completely removed from the plate, which was then washed once with PBS. Then, […] medium containing 1 mg/mL of trypsin and antibiotic were dispensed into each well of the plate and incubated at 37° C. for 5-6 days. In the case of the infected +non-administered control group, incubation was performed for 5-6 days until the cytopathic effect (CPE) of the virus clearly appeared. […] After 5-6 days of the incubation, in order to examine the viability of the cells, […] solution (Sigma, UK) was added to each well of the place and allowed to react at 37° C. for 2 hours. Then, the medium was removed, […] solution (1% glacial acetic acid, 49% DDW, 50% EtOH) was added to each well, and after 15 minutes, the absorbance at 540 nm was measured. The virucidal effects (inhibition %) of the inventive compounds separated from licorice compared to the non-infected+non-administered control group and the infected+non-administered control group were calculated using the following equation 1, and the results of the calculation are shown in Table 1 below.
Inhibition %=(O.D) value of sample-treated group−(O.D) value of infected+non-administered control/(O.D) value of non-infected+non-administered control−(O.D) value of infected+non-administered control×100 [Equation 1]
(§2) In the above equation, the O.D value means the absorbance measured at 540 nm.

Series [4] relates to bovine rotavirus NCDV (G6P[1]). Put plainly: Virucidal effect against bovine rotavirus NCDV (sample pre-reacted with virus, neutral red readout in TF-104 cells). Type of series: cell-based. Here is the method: as §1
First, TF-104 cells were added to a 96-well microplate at a density of 4×10^4 cells/well and cultured with alpha-MEM medium (penicillin 100 units, […], 5% FBS). When the TF-104 cells formed a monolayer, the cells were washed twice with alpha-MEM containing only an antibiotic. Each of NCDV and KJ205 was diluted to an MOI of 0.01 and placed in EP tubes. […] Then, the medium was removed, […] solution (1% glacial acetic acid, 49% DDW, 50% EtOH) was added to each well, and after 15 minutes, the absorbance at 540 nm was measured. The virucidal effects (inhibition %) of the inventive compounds separated from licorice compared to the non-infected+non-administered control group and the infected+non-administered control group were calculated using the following equation 1, and the results of the calculation are shown in Table 1 below. […]
as §2

[5] abbreviates: CPE inhibition effect section, KJ205 (G5P[7]), read-out: CC50.
[6] abbreviates: Virucidal effect, KJ205 (G5P[7]).

On to `O=C(/C=C/c1ccc(O)cc1)c1ccc(O)cc1O` [Compound 1, isoliquiritigenin], for which, in series [1], the EC50 was 35.3 µM and the selectivity ratio stood at 3.9. Further, the CC50 in series [2] (setting [5]) was 138 µM.

Regarding `COc1c(CC=C(C)C)c(O)cc2oc(-c3ccc(O)cc3O)cc12` [Compound 3, licocoumarone], the melting point is 183 to 185 °C. In addition, in series [1], the EC50 is 26.1 µM and the selectivity ratio was found to be 2.3. Further, the EC50 in series [3] (setting [6]) was found to be 26.1 µM. Besides, the “virucidal effect, result in words” value in series [3] was “good inhibitory activities against bovine and porcine rotaviruses”. Moreover, the CC50 in series [2] (setting [5]) was 59.6 µM.

In the case of `COc1cc(O)ccc1C(=O)/C=C/c1ccc(O)cc1` [Compound 2, 2-methoxyisoliquiritigenin], in series [1], the EC50 worked out at 24 µM and the selectivity ratio is 11.7. Also, in series [2] (setting [5]), the CC50 is 280 µM.

`COc1c(CC=C(C)C)c(O)cc2c1CC(c1ccc(O)cc1O)CO2` (stereo not drawn) [Compound 4, glyasperin C]: the EC50 in series [3] (setting [6]) amounted to 18.7 µM; in series [4] (Rotavirus A, TF-104 cells, read-out: EC50 (50% concentration from inhibition concentration)), 26.2 µM. Besides, the selectivity ratio in series [3] (rhesus monkey, Virucidal effect, KJ205 (G5P[7]), read-out: S.I. (selective index, CC50/EC50)) was 2.1; in series [4] (rhesus monkey, read-out: S.I. (selective index, CC50/EC50)), 1.5. Moreover, the “virucidal effect, result in words” value in series [3] is on record as “selective virucidal effects against porcine rotavirus”. Also, the CC50 in series [2] (Virucidal effect section, NCDV (G6P[1]) columns, read-out: CC50 (50% concentration from cytotoxic concentration)) is 39.1 µM.

In general, melting point refers to the temperature of the solid-liquid transition.
